Patent publication US4789542A, “Radioiodinated glucose analogues for use as imaging agents” (The United States of America as represented by the United …, priority 1986, dated 1988)
Where two headings read alike, the source gives them in different places.

Experiment: Distribution of radioactivity in tissues of female rats after intravenous administration
Assay type: in vivo
Conditions: rat; for Brain/Blood ratio / Distribution of radioactivity, Brain / Heart/Blood ratio / tissue uptake at 5 min / tissue uptake at 0.25 h / tissue uptake at 0.5 h / tissue uptake at 1 h: mean; for tissue uptake at 5 min / tissue uptake at 0.25 h / tissue uptake at 0.5 h / tissue uptake at 1 h: iv
Experimental: A test radiopharmaceutical methyl-2-deoxy-2-(E)-[^125 I]-iodovinyl-2,4,6-0-triacetyl-β-D-altropyranoside 6 was prepared to establish that a deoxy substituted iodovinyl carbohydrate could be delivered to the brain in significant levels with prolonged retention. One novel aspect of the invention was the scission of an anhydro sugar with the Grignard reagent. This technique was chosen because a variety of 2-deoxy iodovinyl carbohydrates could be prepared depending on the position of the anhydro group within the pyranose ring. The process of the synthesis is shown in the drawing.
The distribution of radioactivity in tissues of female rats at 5 minutes, 15 minutes, 30 minutes and 60 minutes after intravenous administration of the iodinated compound is shown in the following table. The level of accumulation of radioactivity in the brain after injection of this agent was a significant 1.65 percent dose/g at 5 minutes but the blood levels were also high resulting in blood ratios of 1.6/1 at 5 minutes.

In the case of `CO[C@@H]1O[C@H](COC(C)=O)[C@@H](OC(C)=O)[C@@H](OC(C)=O)[C@@H]1/C=C/[125I]` [methyl-2-deoxy-2-(E)-[^125 I]-iodovinyl-2,4,6-0-triacetyl-β-D-altropyranoside], the Brain/Blood ratio (5 min) is reported as 1.5666, the “Distribution of radioactivity, Brain” value (5 min) is reported as 1.6525 percent dose/g and the Heart/Blood ratio (5 min) is reported as 1.0776. For the same compound, the Brain/Blood ratio (15 min) was 1.2775, the Heart/Blood ratio (15 min) was 1.1490 and the Brain/Blood ratio (30 min) was 1.1035. The Heart/Blood ratio (30 min) was 1.0809, the Brain/Blood ratio (60 min (1 hr)) was 1.1087 and the Heart/Blood ratio (60 min (1 hr)) was 1.0408. For the same compound, the “Distribution of radioactivity, Brain” value (60 min (1 hr), 60 min) was 0.7237 percent dose/g, the “Brain retention at 60 minutes compared with the peak uptake at 5 minutes” value (60 min vs 5 min) was 50% and the tissue uptake at 5 min (blood, 5 min, read-out: Distribution of radioactivity, Blood) was 1.05 %ID/g. For the same compound, the tissue uptake at 0.25 h (blood, 15 min, read-out: Distribution of radioactivity, Blood) was 0.933 %ID/g, the tissue uptake at 0.5 h (blood, 30 min, read-out: Distribution of radioactivity, Blood) was 0.0037 %ID/g and the tissue uptake at 1 h (blood, 60 min (1 hr), read-out: Distribution of radioactivity, Blood) was 0.653 %ID/g. It also gave a tissue uptake at 5 min (brain, 5 min, read-out: Distribution of radioactivity, Brain) of 1.65 %ID/g, a tissue uptake at 0.25 h (brain, 15 min, read-out: Distribution of radioactivity, Brain) of 1.19 %ID/g and a tissue uptake at 0.5 h (brain, 30 min, read-out: Distribution of radioactivity, Brain) of 0.891 %ID/g. It also gave a tissue uptake at 1 h (brain, 60 min (1 hr), read-out: Distribution of radioactivity, Brain) of 0.72 %ID/g, a tissue uptake at 5 min (kidney, 5 min, read-out: Distribution of radioactivity, Kidney) of 1.55 %ID/g and a tissue uptake at 0.25 h (kidney, 15 min, read-out: Distribution of radioactivity, Kidney) of 1.57 %ID/g. The tissue uptake at 0.5 h (kidney, 30 min, read-out: Distribution of radioactivity, Kidney) was 1.7 %ID/g, the tissue uptake at 1 h (kidney, 60 min (1 hr), read-out: Distribution of radioactivity, Kidney) was 1.57 %ID/g and the tissue uptake at 5 min (liver, 5 min, read-out: Distribution of radioactivity, Liver) was 1.39 %ID/g. For the same compound, the tissue uptake at 0.25 h (liver, 15 min, read-out: Distribution of radioactivity, Liver) was 1.37 %ID/g, the tissue uptake at 0.5 h (liver, 30 min, read-out: Distribution of radioactivity, Liver) was 1.23 %ID/g and the tissue uptake at 1 h (liver, 60 min (1 hr), read-out: Distribution of radioactivity, Liver) was 1.05 %ID/g. It also gave a tissue uptake at 5 min (lung, 5 min, read-out: Distribution of radioactivity, Lung) of 1.19 %ID/g, a tissue uptake at 0.25 h (lung, 15 min, read-out: Distribution of radioactivity, Lung) of 1.03 %ID/g and a tissue uptake at 0.5 h (lung, 30 min, read-out: Distribution of radioactivity, Lung) of 0.833 %ID/g. It also gave a tissue uptake at 1 h (lung, 60 min (1 hr), read-out: Distribution of radioactivity, Lung) of 0.663 %ID/g, a tissue uptake at 5 min (thyroid, 5 min, read-out: Distribution of radioactivity, Thyroid) of 20.6 %ID/g and a tissue uptake at 0.25 h (thyroid, 15 min, read-out: Distribution of radioactivity, Thyroid) of 18.9 %ID/g. The tissue uptake at 0.5 h (thyroid, 30 min, read-out: Distribution of radioactivity, Thyroid) was 25.7 %ID/g, the tissue uptake at 1 h (thyroid, 60 min (1 hr), read-out: Distribution of radioactivity, Thyroid) was 33.5 %ID/g and the “Retention in the brain” value (up to 60 min) was “prolonged retention in the brain”. The “Stability to in vivo deiodination (from low thyroid accumulation)” value (up to 60 min) was “demonstrated the stability of this agent to in vivo deiodination”.
